According to patent publication US6605115B1, “Method and composition for inhibiting cardiovascular cell proliferation” (Board of Trustees of the Leland Stanford Junior University, priority 1999, dated 2003):

Columns and labels:
[1] = system: cytokine-stimulated VSMC; assay: Effect of arginine oligomers on NO production in cytokine-stimulated VSMC (NO2, Griess); type: cell-based, rat
[2] = system: cytokine-stimulated VSMC; assay: as above; type: cell-based, rat; details: exposure 5 minutes; observed for 24 hours; free L-arginine at 1 mM
[3] = system: Rat aortic VSMC; assay: VSMC proliferation assay (XTT); type: cell-based; details: 10.0 μM, 30 minutes, then growth medium 0.5% FBS for 48 hours; vs vehicle
Experimental: Rat aortic VSMC were grown to 50% confluence in 96-well cell culture plates. VSMC were then washed and incubated with serum free DMEM for 48 hours to obtain quiescent nondividing cells. Thereafter, VSMC were treated with vehicle, L-R7 (10.0 μM), or D-R7 (10.0 μM) for 30 minutes. After the treatment, cells were washed, and further incubated with serum containing DMEM (0.5%, FBS). Cells were harvested after 48 hours of incubation. Cell count was performed with commercial cell proliferation assay kit using spectrophotometer (XTT, Boehringer Mannheim). As a negative control, cells treated with vehicle and incubated with DSF were used. As an index of cell proliferation, the OD ratio of each treatment group to negative control group was calculated as an index of cell proliferation.

[4] = system: vein graft segments; assay: Ex vivo NOx production from vein graft harvested 3 days after surgery; type: in vivo, New Zealand white rabbits; details: vein grafts harvested after 3 days, absence of calcium ionophore
Experimental: Vein grafts were harvested 3 days after surgery, as described in Example 7. Vein graft segments were incubated in 1 me of Hanks' buffered saline solution (HBSS, Irvine Scientific) containing Ca^2+ (1.0 mM) and L-arginine (100 μM, Sigma) at 37° C. for 2 hours. NOx (nitrate and nitrite) production was measured either in the absence (basal) or presence (stimulated) of calcium ionophore (A23187, 10.0 μM, Sigma). Samples of the medium (80 μL) were collected, and NOx measurement was performed using the Griess reaction facilitated by a commercial calorimetric assay (Cayman Chemical).

[5] = system: iNOS protein; assay: Assay for iNOS protein expression (western blotting); type: cell-based, rat; details: 10 μM, 30 minutes exposure, cells stimulated by IFN-γ and LPS
Experimental: In order to clarify the effects of arginine polymer translocation on iNOS expression, iNOS protein concentrations of rat VSMC were analyzed by western blotting. Samples were analyzed from non-stimulated cells, cells stimulated with IFN-γ (100 U/ml) and LPS (100 μg/ml), or R7 (10 μM) pretreated cells which were stimulated with IFN-γ and LPS. Treated cells were washed twice with PBS, and total cell lysates were harvested in 150 μl of lysis buffer containing 150 mM NaCl, 50 mM Tris/Cl, pH 8.0, 1% NP40, and 0.1% SDS. Samples were centrifuged for 5 minutes at 14,000 g, 4° C., to remove insoluble material, and the supernatant was collected. Protein concentrations were measured with the Lowry method. Cell lysates containing 50 μg of protein were boiled for 5 minutes and separated on an 8.0% SDS-polyacrylamide minigel. Eluted proteins were electroblotted onto nitrocellulose membrane (HyBond, Amersham, England). The blots were incubated for 1 hour in 5% non-fat dry milk/0.05% Tween® in Tris buffered saline (TBS) to block non-specific binding of the antibody. Blots were incubated for 3 hours with primary monoclonal antibodies against iNOS protein diluted 1:2,500 in TBS/Tween®. The blots were then incubated with peroxidase labeled gout anti-mouse IgG in the same buffer for 1 hour. […]

[6] = system: vein grafts; assay: Vein graft model: vessel morphometry 28 days after surgery; type: in vivo, New Zealand white rabbits
Experimental: Male New Zealand white rabbits (3.0-3.5 kg) fed standard diets were anesthetized with a mixture of ketamine (40 mg/kg) and xylazine (5 mg/kg) intramuscularly. The left external jugular vein was exposed through a longitudinal neck incision. The jugular vein was excised, gently flushed and immersed in PBS (control) or PBS containing either L-R7 (10.0 μM) or D-r7 (10.0 μM) for 30 minutes.
The right common carotid artery was exposed and clamped at the both proximal and distal ends. The treated vein segment was washed with PBS and then anastomosed in a reverse end-to-side fashion into the carotid artery, using continuous 8-0 polypropylene sutures. The common carotid artery was ligated and dissected between the two anastomoses, and the wound was closed with 3-0 nylon suture.
Vein graft segments were harvested on the 28th surgical day. Graft segments were fixed in 10% buffered formalin with gentle intraluminal pressure to maintain the physiological graft configuration. The middle portion of the paraffin samples were sectioned (5 μm) and stained with hematoxylin/eosin for light microscopic examination (FIGS. 8A-C). Three sections of each graft, taken at 0.5 mm intervals, were analyzed by planimetry by a observer blinded to the treatment group. The cross-sectional areas of the lumen, intima and media was digitized with the use of the Image Analyst program (Automatrix). The ratio of intima to media (I/M) area was calculated.

[7] = system: human umbilical vein endothelial cells (ECV304); assay: In vitro translocation of biotin-labeled peptides into endothelial cells; type: cell-based; details: VSMC and endothelial cells in culture
Experimental: Spontaneously transformed human umbilical vein endothelial cells (ECV304, ATCC) were cultured in medium M199 (Irvine Scientific) containing 10% fetal bovine serum (FBS), 100 IU/ml penicillin and 100 μg/ml of streptomycin (Gibco BRL). Confluent cells were washed and placed in serum-free medium. After 2 hours, the cells were incubated in presence of biotin labeled peptides, as bL-R7, or bD-R7, or bL-K7 (0.1, 1.0, and 10.0 μM). After 30 minutes of incubation, cells were washed 3 times with phosphate-buffered saline (PBS), fixed in ethanol/acetone; washed in PBS; incubated for 30 minutes with peroxidase suppressor (ImmunoPure, Pierce) to block endogenous peroxidase activity; and then incubated with 5 μg/ml of horse-radish peroxidase (HRP) conjugated strepavidin (Pierce) for 30 minutes. Substrate of HRP, diaminobenzidine (DAB, Sigma), was added to the cells. The reaction was terminated by washing in distilled water after a 60-second incubation. This experiment was repeated 3 times.

## hepta-L-arginine [R7]
[1]; R7 10 μM pretreatment, free L-arginine up to 1 mM
  elevation of NO production: significant elevation of NO production
[1]; pretreatment 30 minutes, then IFN-γ and LPS, 100 μM extracellular L-arginine
  NO production: dose-dependent increases in NO production at doses as low as 10 μM
[1]; pretreatment 30 minutes, vs. vehicle treated cytokine-stimulated cells
  degree of enhancement of NO production: 24±3.8%
[2]
  NO biosynthesis after 5 minutes exposure: sustained increase in NO biosynthesis
[3]
  VSMC proliferation: significantly inhibited
[4]
  Basal NOx production: 80±14 nM/mg tissue/hr
[5]
  expression levels of iNOS: no effect on the expression levels of iNOS
[6]
  myointima formation: substantially less myointima formation
[6]; 10.0 μM
  intima/media ratio (I/M): 0.4±0.2
[6]; 10.0 μM, 30 minutes immersion
  intimal area: 0.5±0.2 mm^2
[6]; 10.0 μM, vs control
  reduction of intimal area: more than 70%
[7]
  translocation across cytoplasmic and nuclear membranes: very efficient at translocating across both cytoplasmic and nuclear membranes
